Values joined by “and” are separate entries in the source; they are usually repeats but may differ in a detail not shown here. Identical values can stand only once. Toxic doses and inconclusive results are not listed. Peptide text beside a SMILES is read from it.
System: BDF1 mice, B16 melanoma ip, median survival T/C
Experiment: NCI In Vivo Anticancer Drug Screen. Data for tumor model B16 Melanoma (intraperitoneal) in B6D2F1 (BDF1) mice
Details: endpoint: median survival time, higher = longer survival
Outline: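 In this screen, activity was judged from survival or tumor size in treated versus vehicle-treated tumor-bearing mice, reported as T/C.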

[1] = dose: 100.0 mg/kg/injection, schedule: Q01DX009 (ip), vehicle: Klucel (hydroxypropylcellulose) (HPC)
[2] = dose: 200.0 mg/kg/injection, schedule: Q01DX009 (ip), vehicle: Klucel (hydroxypropylcellulose) (HPC)
[3] = dose: 400.0 mg/kg/injection, schedule: Q01DX009 (ip), vehicle: Klucel (hydroxypropylcellulose) (HPC)
[4] = dose: 12.5 mg/kg/injection, schedule: Q01DX009 (ip), vehicle: Klucel (hydroxypropylcellulose) (HPC)
[5] = dose: 50.0 mg/kg/injection, schedule: Q01DX009 (ip), vehicle: saline with Tween-80
[6] = dose: 100.0 mg/kg/injection, schedule: Q01DX009 (ip), vehicle: saline with Tween-80
[7] = dose: 200.0 mg/kg/injection, schedule: Q01DX009 (ip), vehicle: saline with Tween-80
[8] = dose: 400.0 mg/kg/injection, schedule: Q01DX009 (ip), vehicle: saline with Tween-80
[9] = dose: 25.0 mg/kg/injection, schedule: Q01DX009 (ip), vehicle: saline with Tween-80
[10] = dose: 25.0 mg/kg/injection, schedule: Q01DX009 (ip), vehicle: Klucel (hydroxypropylcellulose) (HPC)
[11] = dose: 50.0 mg/kg/injection, schedule: Q01DX009 (ip), vehicle: Klucel (hydroxypropylcellulose) (HPC)
[12] = dose: 100.0 mg/kg/injection, schedule: Q04DX003 (ip), vehicle: Klucel (hydroxypropylcellulose) (HPC)
[13] = dose: 25.0 mg/kg/injection, schedule: Q01DX009 (ip), vehicle: saline

## CC1OC(OC2CC(O)(C(=O)CO)Cc3c(O)c4c(c(O)c32)C(=O)c2ccccc2C4=O)CC(N)C1O (configuration not stated)
dose: 0.1 mg/kg/injection, schedule: Q01DX001 (ip), vehicle: water
  T/C: 102 % of control
dose: 130.0 micrograms/kg/injection, schedule: Q01DX004 (ip), vehicle: other
  T/C: 121 % of control
dose: 216.0 micrograms/kg/injection, schedule: Q04DX003 (ip), vehicle: water
  T/C: 182 % of control
dose: 600.0 micrograms/kg/injection, schedule: Q01DX004 (ip), vehicle: other
  T/C: 114 % of control
dose: 600.0 micrograms/kg/injection, schedule: Q04DX003 (ip), vehicle: water
  T/C: 150 % of control and 283 % of control
dose: 1000.0 micrograms/kg/injection, schedule: Q04DX003 (ip), vehicle: water
  T/C: 154 % of control and 211 % of control

## Cc1ccc(NS(=O)(=O)c2ccc(F)cc2)c(C)c1
[1]
  T/C: 106 % of control
[2]
  T/C: 110 % of control
[3]
  T/C: 93 % of control

## Cc1ccc2c(c1)C(=O)N(CC[P+](c1ccccc1)(c1ccccc1)c1ccccc1)C2=O
dose: 0.78 mg/kg/injection, schedule: Q01DX009 (ip), vehicle: Klucel (hydroxypropylcellulose) (HPC)
  T/C: 93 % of control
dose: 1.56 mg/kg/injection, schedule: Q01DX009 (ip), vehicle: Klucel (hydroxypropylcellulose) (HPC)
  T/C: 108 % of control
dose: 3.12 mg/kg/injection, schedule: Q01DX009 (ip), vehicle: Klucel (hydroxypropylcellulose) (HPC)
  T/C: 103 % of control
dose: 6.25 mg/kg/injection, schedule: Q01DX009 (ip), vehicle: Klucel (hydroxypropylcellulose) (HPC)
  T/C: 103 % of control
[4]
  T/C: 95 % of control

## COc1ccc2c3c1OC1CC(O)C=CC31CCN(C)C2 (configuration not stated)
dose: 1.25 mg/kg/injection, schedule: Q01DX009 (ip), vehicle: saline with Tween-80
  T/C: 106 % of control
dose: 2.5 mg/kg/injection, schedule: Q01DX009 (ip), vehicle: saline
  T/C: 103 % of control
dose: 5.0 mg/kg/injection, schedule: Q01DX009 (ip), vehicle: saline with Tween-80
  T/C: 105 % of control and 113 % of control
dose: 10.0 mg/kg/injection, schedule: Q01DX009 (ip), vehicle: saline with Tween-80
  T/C: 95 % of control

## Cc1[nH]c(N)nc(=S)c1CCC(=O)Nc1ccc(C(=O)NC(CCC(=O)O)C(=O)O)cc1 (configuration not stated)
[5]
  T/C: 101 % of control
[6]
  T/C: 101 % of control
[7]
  T/C: 100 % of control
[8]
  T/C: 110 % of control

## CN(C)c1nc(N)nc(Nc2ccc(Br)cc2)c1N=O
[2]
  T/C: 118 % of control

## N#Cc1ccccc1C(C#N)c1ccc([N+](=O)[O-])cc1 (configuration not stated)
[6]
  T/C: 100 % of control
[7]
  T/C: 90 % of control

## O=C1NC(C2CCC3CN32)C(=O)NC1C1CCC2CN21 (configuration not stated)
dose: 0.05 mg/kg/injection, schedule: Q01DX009 (ip), vehicle: saline
  T/C: 102 % of control
dose: 0.1 mg/kg/injection, schedule: Q01DX009 (ip), vehicle: saline
  T/C: 107 % of control
dose: 0.2 mg/kg/injection, schedule: Q01DX009 (ip), vehicle: saline
  T/C: 108 % of control
dose: 0.4 mg/kg/injection, schedule: Q01DX009 (ip), vehicle: saline
  T/C: 115 % of control

## CCCCCc1ccc(C(=O)O)cc1
[9]
  T/C: 105 % of control
[5]
  T/C: 102 % of control
[6]
  T/C: 111 % of control

## N#CCCC1C2CCC(C2)C1C#N (configuration not stated)
dose: 5.0 mg/kg/injection, schedule: Q01DX009 (ip), vehicle: Klucel (hydroxypropylcellulose) (HPC)
  T/C: 112 % of control
dose: 10.0 mg/kg/injection, schedule: Q01DX009 (ip), vehicle: Klucel (hydroxypropylcellulose) (HPC)
  T/C: 95 % of control

## CNc1ccc(/C=C2\C=Cc3ccccc32)cc1
dose: 12.5 mg/kg/injection, schedule: Q01DX009 (ip), vehicle: gum acacia
  T/C: 104 % of control
[10]
  T/C: 109 % of control
dose: 25.0 mg/kg/injection, schedule: Q01DX009 (ip), vehicle: gum acacia
  T/C: 91 % of control
[11]
  T/C: 112 % of control
dose: 50.0 mg/kg/injection, schedule: Q01DX009 (ip), vehicle: gum acacia
  T/C: 102 % of control

## NC(CS/C(Cl)=C/Cl)C(=O)O (configuration not stated)
dose: 12.0 mg/kg/injection, schedule: Q01DX009 (ip), vehicle: other
  T/C: 102 % of control
dose: 18.0 mg/kg/injection, schedule: Q01DX009 (ip), vehicle: other
  T/C: 90 % of control
dose: 27.0 mg/kg/injection, schedule: Q01DX009 (ip), vehicle: other
  T/C: 90 % of control

## O=[N+]([O-])c1ccc2ccccc2c1I
[6]
  T/C: 101 % of control
[7]
  T/C: 103 % of control
[8]
  T/C: 99 % of control

## Cc1ccc(S(=O)(=O)N/N=C/c2ccccc2)cc1
dose: 50.0 mg/kg/injection, schedule: Q01DX009 (ip), vehicle: other
  T/C: 104 % of control
dose: 100.0 mg/kg/injection, schedule: Q01DX009 (ip), vehicle: other
  T/C: 110 % of control
dose: 200.0 mg/kg/injection, schedule: Q01DX009 (ip), vehicle: other
  T/C: 103 % of control
dose: 400.0 mg/kg/injection, schedule: Q01DX009 (ip), vehicle: other
  T/C: 106 % of control

## CN(C)/N=N/c1[nH]ncc1C(N)=O
dose: 50.0 mg/kg/injection, schedule: Q01DX009 (ip), vehicle: carboxymethylcellulose (CMC)
  T/C: 105 % of control

## Cc1ccc(S(=O)(=O)N2CCCC(Br)(Br)C(=O)c3ccccc32)cc1
dose: 25.0 mg/kg/injection, schedule: Q04DX003 (ip), vehicle: Klucel (hydroxypropylcellulose) (HPC)
  T/C: 95 % of control
dose: 50.0 mg/kg/injection, schedule: Q04DX003 (ip), vehicle: Klucel (hydroxypropylcellulose) (HPC)
  T/C: 96 % of control
[12]
  T/C: 93 % of control

## Cc1ccc(NC(=O)c2cccc(C(=O)Nc3ccc(C)cc3C)c2)c(C)c1
[4]
  T/C: 115 % of control
[10]
  T/C: 96 % of control
[11]
  T/C: 102 % of control

## Cc1ccc(S(=O)(=O)N/N=C/c2ccccc2Cl)cc1
dose: 1.56 mg/kg/injection, schedule: Q01DX009 (ip), vehicle: other
  T/C: 98 % of control
dose: 3.13 mg/kg/injection, schedule: Q01DX009 (ip), vehicle: other
  T/C: 99 % of control
dose: 6.25 mg/kg/injection, schedule: Q01DX009 (ip), vehicle: other
  T/C: 96 % of control
[4]
  T/C: 91 % of control
dose: 12.5 mg/kg/injection, schedule: Q01DX009 (ip), vehicle: other
  T/C: 90 % of control
[11]
  T/C: 89 % of control
[1]
  T/C: 86 % of control

## Cc1cc2c3ccccc3ccc2[n+]2ccccc12
dose: 6.25 mg/kg/injection, schedule: Q01DX009 (ip), vehicle: saline
  T/C: 95 % of control
dose: 12.5 mg/kg/injection, schedule: Q01DX009 (ip), vehicle: saline
  T/C: 93 % of control

## CCOC(=O)C(CC(C)C)NC(=O)C(Cc1ccc(N(CCCl)CCCl)cc1)NC(C)=O (configuration not stated)
dose: 1.0 mg/kg/injection, schedule: Q01DX009 (ip), vehicle: saline with Tween-80
  T/C: 106 % of control
dose: 2.0 mg/kg/injection, schedule: Q01DX009 (ip), vehicle: saline with Tween-80
  T/C: 113 % of control
dose: 4.0 mg/kg/injection, schedule: Q01DX009 (ip), vehicle: saline with Tween-80
  T/C: 106 % of control
dose: 8.0 mg/kg/injection, schedule: Q01DX009 (ip), vehicle: saline with Tween-80
  T/C: 119 % of control
dose: 8.0 mg/kg/injection, schedule: Q01DX009 (ip), vehicle: saline
  T/C: 105 % of control
dose: 16.0 mg/kg/injection, schedule: Q01DX009 (ip), vehicle: saline
  T/C: 116 % of control

## CCN(CC)CCNC1CCCCC1
[13]
  T/C: 102 % of control
dose: 50.0 mg/kg/injection, schedule: Q01DX009 (ip), vehicle: saline
  T/C: 112 % of control
dose: 100.0 mg/kg/injection, schedule: Q01DX009 (ip), vehicle: saline
  T/C: 98 % of control

## CCCCCC(CN(C)C)C(O)/C=C/c1ccccc1Cl (configuration not stated)
dose: 6.0 mg/kg/injection, schedule: Q01DX009 (ip), vehicle: saline
  T/C: 96 % of control
dose: 12.0 mg/kg/injection, schedule: Q01DX009 (ip), vehicle: saline
  T/C: 98 % of control
[13]
  T/C: 103 % of control

## CC(C)CC(N)C(=O)NCC(=O)NC(Cc1ccccc1)C(=O)O (stereo not drawn) (H-Leu-Gly-Phe-OH; configuration not given here)
[1]
  T/C: 93 % of control
[12]
  T/C: 95 % of control
[2]
  T/C: 91 % of control
dose: 200.0 mg/kg/injection, schedule: Q04DX003 (ip), vehicle: Klucel (hydroxypropylcellulose) (HPC)
  T/C: 97 % of control
[3]
  T/C: 89 % of control
dose: 400.0 mg/kg/injection, schedule: Q04DX003 (ip), vehicle: Klucel (hydroxypropylcellulose) (HPC)
  T/C: 102 % of control

## COc1cc2c(c(OC)c1OC)C(=O)/C(=C\c1ccccc1)O2
dose: 6.25 mg/kg/injection, schedule: Q01DX009 (ip), vehicle: saline with Tween-80
  T/C: 101 % of control
dose: 12.5 mg/kg/injection, schedule: Q01DX009 (ip), vehicle: saline with Tween-80
  T/C: 106 % of control
[9]
  T/C: 103 % of control
[5]
  T/C: 86 % of control

Reference: PubChem BioAssay AID192 (DTP/NCI, 2004)
